Measurements from patent US8299093B2, “Small molecule inhibitors of retroviral assembly and maturation” (New York Blood Center, Inc., priority 2008, dated 2012).

What was measured:
HIV-1 [1] = details: cited from earlier work
HIV-1 capsid = HIV-1 capsid (Human immunodeficiency virus type 1 group M subtype B, UniProt P04591); details: read-out: Binding affinity (Kd); cited from earlier work
[2] = XTT cytotoxicity assay in MT-2 cells; format: cell-based; details: human
Description: (§1) Briefly, for MT-2 cells, 100 μL of small molecule at graded concentrations was added to an equal volume of cells (5×10^4 cells/ml) in 96-well plates followed by incubation at 37° C. for 4 days, which ran parallel to the neutralization assay in MT-2 (except medium was added instead of virus). In the case of PBMC, 2.5×10^5 cells/mL were used and the cytotoxicity was measured after 7 days. After addition of XTT (PolySciences, Inc.), the soluble intracellular formazan was quantitated calorimetrically at 450 nm 4 hours later with a reference at 620 nm. The CC50 values were calculated.

HIV-1RF/L-323-12-3 = test: Antiviral activity (p24) against protease resistant isolate HIV-1RF/L-323-12-3 in MT-2; format: cell-based; details: Human immunodeficiency virus 1
Description: (§2) AZT was used as a positive control in the infectivity assays. In brief, 1×10^4 MT-2 cells (lymphocytes) were infected with HIV-1 at 100 TCID50 (50% tissue culture infective dose, 0.01 MOI [multiplicity of infection]) in 200 μL RPMI 1640 medium containing 10% FBS in the presence or absence of small molecules at graded concentrations overnight. The culture supernatants were then removed and fresh media containing freshly prepared test compounds were added. On the fourth day post-infection, 100 μL of culture supernatants were collected from each well, mixed with equal volume of 5% TRITON X-100® and tested for p24 antigen by ELISA®. The IC50 values were calculated by the GraphPad Prism software (GraphPad Software®, Inc.) and the values were classified as IC50<10 μM and IC50>10 μM.
(§3) The molecules in Tables 3 include the calculated IC50 values and use “A1” to denote IC50<10 μM and “B1” to denote IC50>10 μM and “C1” to denote CC50<50 μM and “D1” to denote […].

[3] = system: Gag-Pol expressing 293 T cells; test: Cell-based mature particle formation (VLP), electron microscopy of Gag-Pol transfected 293 T cells; set-up: species or system HIV-1
Description: In the cell-based system, the impact of NYAD-S6 on virus-like particle (VLP) release and morphology was analyzed by electron microscopy one day post-transfection with plasmid encoding Gag-Pol. Forty thousand 293 T cells were seeded per well in a 6-well plate on the day before transfection. […] The cells were then fixed in 3% glutaraldehyde in 100 mM sodium cacodylate for 1 hour and post-fixed in 1% OsO4 in 100 mM sodium cacodylate for another 1 hour. Specimens were then dehydrated through graded series of ethanol solutions and embedded in EPON® media. After staining with uranyl acetate and lead citrate, ultra-thin sections were examined under a Philips EM410 electron microscope.
In the case of untreated cells transfected with a Gag-Pol expression vector, a large number of mature particles containing electron-dense core structures were found (FIG. 2A).

HIV-1 SF2 = test: Antiviral activity (p24) against HIV-1 SF2 in MT-2; format: cell-based; details: Human immunodeficiency virus 1; SF2, subtype B, MT-2, R5X4, laboratory strain
Description: as §2, §3

HIV-1 IIIB = test: Antiviral activity (p24) against HIV-1 IIIB in MT-2; format: cell-based; details: Human immunodeficiency virus 1, subtype B, MT-2, X4, laboratory strain
Description: as §2, §3

HIV-1 93Br020 = test: Antiviral activity (p24) against primary isolate 93Br020 in PBMC; format: cell-based; details: Human immunodeficiency virus 1, 93Br020, subtype F, R5X4, primary isolate
Description: (§4) Peripheral blood mononuclear cells (PBMCs) were isolated from the blood of healthy donors by standard density gradient centrifugation using Histopaque-1077 (Sigma). The cells were cultured at 37° C. for 2 hours. Nonadherent cells were collected and resuspended at 5×10^6 cells/ml RPMI-1640 medium containing 10% FBS, 5 μg/ml PHA, and 100 U/ml IL-2 (Sigma), followed by incubation at 37° C. for 3 days. The PHA-stimulated cells (5×10^4 cells/well) were infected with primary HIV-1 isolates at 500 TCID50 (0.01 MOI) in the absence or presence of small molecule inhibitor at graded concentrations. Culture media were changed every 3 days and replaced with fresh media containing freshly prepared inhibitor. The supernatants were collected 7 days post-infection and tested for p24 antigen by ELISA. The inhibition of p24 production in PBMC was measured over a range of concentrations and the concentration required to inhibit 50% (IC50) of the p24 production was calculated by the GraphPad Prism software.
as §3

HIV-1 BaL = test: Antiviral activity (p24) against HIV-1 BaL in PBMC; format: cell-based; details: Human immunodeficiency virus 1, subtype B, R5, laboratory strain
Description: as §2, §4, §3

HIV-1 92US657 = test: Antiviral activity (p24) against primary isolate 92US657 in PBMC; format: cell-based; details: Human immunodeficiency virus 1, 92US657, subtype B, R5, primary isolate
Description: as §4, §3

HIV-1 BCF02 = test: Antiviral activity (p24) against primary isolate BCF02 in PBMC; format: cell-based; details: Human immunodeficiency virus 1, BCF02, Group (O), R5, primary isolate
Description: as §4, §3

[4] = XTT cytotoxicity assay in PBMC; format: cell-based; details: human
Description: as §1, with “Cytotoxicity of small molecules in cultures with MT-2 cells and PBMC was measured by the tetrazolium hydroxide XTT (sodium 3′-(1-(phenylamino)-carbonyl)-3,4-tetrazolium-bis(4-methoxy-6-nitro) benzenesulfonic acid hydrate) cytotoxicity assay, as previously described (Jiang et al., 2004). Briefly,” for “Briefly,”

HIV-1 AZT-R = test: Antiviral activity (p24) against RT-resistant isolate AZT-R in MT-2; format: cell-based; details: Human immunodeficiency virus 1
Description: as §2, §3

HIV-1 93IN101 = test: Antiviral activity (p24) against primary isolate 93IN101 in PBMC; format: cell-based; details: Human immunodeficiency virus 1, 93IN101, subtype C, R5, primary isolate
Description: as §4, §3

HIV-1 RU570 = test: Antiviral activity (p24) against primary isolate RU570 in PBMC; format: cell-based; details: Human immunodeficiency virus 1, RU570, subtype G, R5, primary isolate
Description: as §4, §3

HIV-1 MN = test: Antiviral activity (p24) against HIV-1 MN in MT-2; format: cell-based; details: Human immunodeficiency virus 1, subtype B, MT-2, X4, laboratory strain
Description: as §2, §3

HIV-1 [5] = test: Inhibition of HIV-1 infectivity (p24 ELISA) in MT-2 cells, laboratory-adapted HIV-1 strains; format: cell-based
Description: as §2, with “ELISA®.” for “ELISA®. The IC50 values were calculated by the GraphPad Prism software (GraphPad Software®, Inc.) and the values were classified as IC50<10 μM and IC50>10 μM.”

HIV-1 RF = test: Antiviral activity (p24) against HIV-1 RF in MT-2; format: cell-based; details: Human immunodeficiency virus 1, subtype B, MT-2, X4, laboratory strain
Description: as §2, §3

HIV-1 [6] = details: cited from earlier work; remark: listed apart in the source

SMILES: Cc1ccc(NC(=O)NCCSCc2ccc(CN(C)C)o2)cc1Cl [CAP-1]
- HIV-1 inhibition in viral infectivity assays (HIV-1 [1]): dose-dependent HIV-1 inhibition
- Kd (HIV-1 capsid): ~800 µM

SMILES: Cc1ccc2[nH]c(=O)c(CN(Cc3ccco3)C(=O)c3ccc(Cl)cc3)cc2c1 [NYAD-S6]
- CC50 at 4 days ([2]; MT-2 cells, 4 days): > 50 µM
- CC50 ([2]; Table 1, formula I, cell type not given, read-out: CC50 (concentration that causes 50% cytotoxicity)): > 10 µM
- IC50 (HIV-1RF/L-323-12-3): < 10 µM
- Formation of electron-dense core structures ([3]; 0.4 μM): markedly inhibited
- Formation of electron-dense core structures ([3]; 2 μM): markedly inhibited
- Formation of electron-dense core structures ([3]; 10 μM): markedly inhibited
- Mature particle formation ([3]; FIGS. 2A-D, 0.4, 2 and 10 μM vs control): dramatic decrease in mature particle formation
- IC50 (HIV-1 SF2): < 10 µM
- IC50 (HIV-1 IIIB): < 10 µM
- IC50 (HIV-1 93Br020): < 10 µM
- IC50 (HIV-1 BaL): < 10 µM
- IC50 (HIV-1 92US657): < 10 µM
- IC50 (HIV-1 BCF02): < 10 µM
- CC50 at 7 days [4]: > 50 µM
- IC50 (HIV-1 AZT-R): < 10 µM
- IC50 (HIV-1 93IN101): < 10 µM
- IC50 (HIV-1 RU570): < 10 µM
- IC50 (HIV-1 MN): < 10 µM
- IC50 (HIV-1 [5]; Human immunodeficiency virus 1, MT2, 96 h, read-out: IC50 (concentration that provides 50% inhibition of HIV-1 p24), Table 1, formula I, MT-2 cells, p24 ELISA day 4): < 10 µM
- Activity against a broad range of HIV-1 laboratory-adapted and primary isolates (HIV-1 [5]; including one RT-inhibitor-resistant and one protease-inhibitor-resistant isolate (summary of Table 3)): consistently potent activity
- IC50 (HIV-1 RF): < 10 µM

SMILES: C=C(C)[C@@H]1CC[C@]2(C(=O)O)CC[C@]3(C)[C@H](CC[C@@H]4[C@@]5(C)CC[C@H](OC(=O)CC(C)(C)C(=O)O)C(C)(C)[C@@H]5CC[C@]43C)[C@@H]12 [PA-457]
- Antiviral potency in cell culture (HIV-1 [6]): low nM
